Assay results: ChEMBL document CHEMBL1649445, “Genital tract, cord blood, and amniotic fluid exposures of seven antiretroviral drugs during and after pregnancy in human immunodeficiency virus type 1-infected women” (Antimicrob Agents Chemother, 2009)
Blank lines part the entries; values can stand above or below the compound they belong to.

Experiments:
Type in all cases: ADME, organism-based
[1] = Ratio of drug level in HIV-infected pregnant woman amniotic fluid to maternal blood plasma at 1250 mg, po BID by HPLC/UV analysis; details: female, human
[2] = Drug level in HIV-infected pregnant woman maternal blood plasma at 1250 mg, po BID by HPLC/UV analysis; details: human, in vivo
[3] = Drug level in HIV-infected pregnant woman amniotic fluid at 1250 mg, po BID by HPLC/UV analysis; details: human, in vivo
[4] = Ratio of drug level in HIV-infected pregnant woman cord blood plasma to maternal blood plasma at 1250 mg, po BID by HPLC/UV analysis; details: female, human
[5] = Drug level in HIV-infected pregnant woman cord blood plasma at 1250 mg, po BID by HPLC/UV analysis; details: human, in vivo
[6] = Drug level in HIV-infected pregnant woman maternal blood plasma at 400 mg, po BID by HPLC/UV analysis; details: human, in vivo
[7] = Drug level in HIV-infected pregnant woman amniotic fluid at 400 mg, po BID by HPLC/UV analysis; details: human, in vivo
[8] = Drug level in HIV-infected pregnant woman cord blood plasma at 400 mg, po BID by HPLC/UV analysis; details: human, in vivo
[9] = Drug level in HIV-infected pregnant woman cord blood plasma at 300 mg, po QD by LC/MS/MS analysis; details: human, in vivo
[10] = Drug level in HIV-infected pregnant woman amniotic fluid at 300 mg, po QD by LC/MS/MS analysis; details: human, in vivo
[11] = Ratio of drug level in HIV-infected pregnant woman amniotic fluid to maternal blood plasma at 300 mg, po QD by LC/MS/MS analysis; details: female, human
[12] = Drug level in HIV-infected pregnant woman maternal blood plasma at 300 mg, po QD by LC/MS/MS analysis; details: human, in vivo
[13] = Ratio of drug level in HIV-infected pregnant woman cord blood plasma to maternal blood plasma at 300 mg, po QD by LC/MS/MS analysis; details: female, human
[14] = Drug level in HIV-infected pregnant woman cord blood plasma at 200 mg, po BID by HPLC/UV analysis; details: human, in vivo
[15] = Drug level in HIV-infected pregnant woman amniotic fluid at 200 mg, po BID by HPLC/UV analysis; details: human, in vivo
[16] = Ratio of drug level in HIV-infected pregnant woman cord blood plasma to maternal blood plasma at 200 mg, po BID by HPLC/UV analysis; details: female, human
[17] = Ratio of drug level in HIV-infected pregnant woman amniotic fluid to maternal blood plasma at 200 mg, po BID by HPLC/UV analysis; details: female, human
[18] = Drug level in HIV-infected pregnant woman maternal blood plasma at 200 mg, po BID by HPLC/UV analysis; details: human, in vivo
[19] = Drug level in HIV-infected pregnant woman amniotic fluid at 300 mg, po BID by LC/MS/MS analysis; details: human, in vivo
[20] = Drug level in HIV-infected pregnant woman maternal blood plasma at 300 mg, po BID by LC/MS/MS analysis; details: human, in vivo
[21] = Drug level in HIV-infected pregnant woman cord blood plasma at 300 mg, po BID by LC/MS/MS analysis; details: human, in vivo
[22] = Ratio of drug level in HIV-infected pregnant woman amniotic fluid to maternal blood plasma at 100 mg, po BID by HPLC/UV analysis; details: female, human
[23] = Drug level in HIV-infected pregnant woman cord blood plasma at 100 mg, po BID by HPLC/UV analysis; details: human, in vivo
[24] = Drug level in HIV-infected pregnant woman maternal blood plasma at 100 mg, po BID by HPLC/UV analysis; details: human, in vivo
[25] = Drug level in HIV-infected pregnant woman amniotic fluid at 100 mg, po BID by HPLC/UV analysis; details: human, in vivo
[26] = Ratio of drug level in HIV-infected pregnant woman cord blood plasma to maternal blood plasma at 100 mg, po BID by HPLC/UV analysis; details: female, human
[27] = Drug level in HIV-infected pregnant woman maternal blood plasma at 150 mg, po BID by LC/MS/MS analysis; details: human, in vivo
[28] = Drug level in HIV-infected pregnant woman amniotic fluid at 150 mg, po BID by LC/MS/MS analysis; details: human, in vivo
[29] = Drug level in HIV-infected pregnant woman cord blood plasma at 150 mg, po BID by LC/MS/MS analysis; details: human, in vivo

SMILES: Cc1c(O)cccc1C(=O)N[C@@H](CSc1ccccc1)[C@H](O)CN1C[C@H]2CCCC[C@H]2C[C@H]1C(=O)NC(C)(C)C
Kp [1]: 1
Drug uptake [2]: 65 ng/mL
Drug uptake [3]: 12 ng/mL
Kp [4]: 0.49
Drug uptake [5]: 25 ng/mL

SMILES: Cc1cccc(C)c1OCC(=O)N[C@@H](Cc1ccccc1)[C@@H](O)C[C@H](Cc1ccccc1)NC(=O)[C@H](C(C)C)N1CCCNC1=O [LOPINAVIR]
Drug uptake [6]: 3451 ng/mL
Drug uptake [7]: 60 ng/mL
Drug uptake [8]: 80 ng/mL

SMILES: Cc1ccnc2c1NC(=O)c1cccnc1N2C1CC1 [NEVIRAPINE]
Drug uptake [14]: 1538 ng/mL
Drug uptake [15]: 1385 ng/mL
Kp [16]: 0.59
Kp [17]: 0.53
Drug uptake [18]: 2595 ng/mL

SMILES: Nc1ccn([C@@H]2CS[C@H](CO)O2)c(=O)n1 [LAMIVUDINE]
Drug uptake [27]: 271 ng/mL
Drug uptake [28]: 931 ng/mL
Drug uptake [29]: 216 ng/mL

The next lines start with the values.

Drug uptake [9]: 30 ng/mL
Drug uptake [10]: 791 ng/mL
Kp [11]: 158
Drug uptake [12]: 5 ng/mL
Kp [13]: 6
SMILES: C[C@H](Cn1cnc2c(N)ncnc21)OCP(=O)(O)O [TENOFOVIR ANHYDROUS]

Drug uptake [19]: 2249 ng/mL
Drug uptake [20]: 557 ng/mL
Drug uptake [21]: 605 ng/mL
SMILES: Cc1cn([C@H]2C[C@H](N=[N+]=[N-])[C@@H](CO)O2)c(=O)[nH]c1=O [ZIDOVUDINE]

Kp [22]: 0.02
Drug uptake [23]: 20 ng/mL
Drug uptake [24]: 256 ng/mL
Drug uptake [25]: 12 ng/mL
Kp [26]: 0.55
SMILES: CC(C)c1nc(CN(C)C(=O)N[C@H](C(=O)N[C@@H](Cc2ccccc2)C[C@H](O)[C@H](Cc2ccccc2)NC(=O)OCc2cncs2)C(C)C)cs1 [RITONAVIR]
